# Patent US5990147A, “H3 receptor ligands of the phenyl-alkyl-imidazoles type” (Schering Corporation, priority 1998, dated 1999)
# Target: T1, H3 receptors (Cavia porcellus, UniProt Q9JI35)
# T1 construct: The source of the H3 receptors in this experiment was guinea pig brain; from tissue; host or cells: guinea pig brain membranes
# Assay: H3-Receptor Binding Assay (guinea pig brain membranes, [3H]R-a-methylhistamine or [3H]Na-methylhistamine)
# Settings: not given
# Procedure: The source of the H3 receptors in this experiment was guinea pig brain. The animals weighed 400-600 g. The brain tissue was homogenized using a Polytron in a solution of 50 mM Tris, pH 7.5. The final concentration of tissue in the homogenization buffer was 10% w/v. The homogenates were centrifuged at 1,000×g for 10 min. in order to remove clumps of tissue and debris. The resulting supernatants were then centrifuged at 50,000×g for 20 min. in order to sediment the membranes, which were next washed three times in homogenization buffer (50,000×g for 20 min. each). The membranes were frozen and stored at -70° C. until needed.
# All compounds to be tested were dissolved in DMSO and then diluted into the binding buffer (50 mM Tris, pH 7.5) such that the final concentration was 2 μg/ml with 0.1% DMSO. Membranes were then added (400 μg of protein) to the reaction tubes. The reaction was started by the addition of 3 nM [^3 H]R-a-methylhistamine (8.8 Ci/mmol) or 3 nM [^3 H]N^a -methylhistamine (80 Ci/mmol) and continued under incubation at 30° C. for 30 min. Bound ligand was separated from unbound ligand by filtration, and the amount of radioactive ligand bound to the membranes was quantitated by liquid scintillation spectrometry. All incubations were performed in duplicate and the standard error was always less than 10%. […] The results are given in the table below for the HCl salt of the indicated compound.
# T1 sequence (Q9JI35 whole entry): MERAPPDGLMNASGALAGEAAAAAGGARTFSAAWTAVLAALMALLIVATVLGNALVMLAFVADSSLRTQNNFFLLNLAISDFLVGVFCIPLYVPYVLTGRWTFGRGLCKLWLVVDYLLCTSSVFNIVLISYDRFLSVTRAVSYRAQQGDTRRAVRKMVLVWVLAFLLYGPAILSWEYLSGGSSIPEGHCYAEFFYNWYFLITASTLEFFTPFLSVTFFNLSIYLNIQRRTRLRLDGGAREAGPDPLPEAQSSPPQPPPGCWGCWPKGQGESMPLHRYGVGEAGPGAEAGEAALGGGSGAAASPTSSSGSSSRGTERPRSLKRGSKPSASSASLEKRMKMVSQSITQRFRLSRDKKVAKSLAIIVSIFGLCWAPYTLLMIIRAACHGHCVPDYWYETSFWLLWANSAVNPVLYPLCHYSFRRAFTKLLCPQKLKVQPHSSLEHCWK
row,Compound,Ki [nM]
1,O=C(NCc1ccc(Cc2c[nH]cn2)cc1)Nc1cc(Cl)cc(Cl)c1 [Compound 8],12
2,O=C(Nc1cccc(C(F)(F)F)c1)OCc1ccc(Cc2c[nH]cn2)cc1 [Compound 12],21
3,Cc1cc(C)cc(NC(=O)OCc2ccc(Cc3c[nH]cn3)cc2)c1 [Compound 14],17
4,N#Cc1cccc(NC(=O)OCc2ccc(Cc3c[nH]cn3)cc2)c1 [Compound 15],7
5,COc1cccc(NC(=O)OCc2ccc(Cc3c[nH]cn3)cc2)c1 [Compound 17],13
6,O=C(Nc1cccc(F)c1)OCc1ccc(Cc2c[nH]cn2)cc1 [Compound 19],5
7,O=C(CCc1ccc(Cc2c[nH]cn2)cc1)Nc1ccccc1 [Compound 21],2
8,O=C(CCc1ccc(Cc2c[nH]cn2)cc1)Nc1cccc(Cl)c1 [Compound 22],1
9,O=C(CCc1ccc(Cc2c[nH]cn2)cc1)NCCc1ccc(Cl)cc1 [Compound 24],5

# Same assay, conditions: HCl salt of the indicated compound; guinea pig brain membranes; 3 nM [3H]R-a-methylhistamine or 3 nM [3H]Na-methylhistamine, pH 7.5, 30° C., 30 min; read-out: Ki
row,Compound,Ki [nM]
1,COc1cccc(NC(=O)NCc2ccc(Cc3c[nH]cn3)cc2)c1 [Compound 1],18
2,O=C(NCc1ccc(Cc2c[nH]cn2)cc1)Nc1cc(C(F)(F)F)cc(C(F)(F)F)c1 [Compound 2],22
3,Cc1cc(C)cc(NC(=O)NCc2ccc(Cc3c[nH]cn3)cc2)c1 [Compound 3],9
4,O=C(NCc1ccc(Cc2c[nH]cn2)cc1)Nc1ccccc1Cl [Compound 4],32
5,O=C(NCc1ccc(Cc2c[nH]cn2)cc1)Nc1cccc(C(F)(F)F)c1 [Compound 6],16
6,N#Cc1cccc(NC(=O)NCc2ccc(Cc3c[nH]cn3)cc2)c1 [Compound 7],5
7,O=C(NCc1ccc(Cc2c[nH]cn2)cc1)Nc1cc(Cl)cc(Cl)c1 [Compound 8],4
8,O=C(NCc1ccc(Cc2c[nH]cn2)cc1)Nc1cccc(Cl)c1 [Compound 9],6
9,O=C(NCc1ccc(Cc2c[nH]cn2)cc1)Nc1ccc(Cl)c(Cl)c1 [Compound 10],7
10,O=C(Nc1ccc(Cl)c(Cl)c1)OCc1ccc(Cc2c[nH]cn2)cc1 [Compound 13],18
11,O=C(Nc1cc(C(F)(F)F)cc(C(F)(F)F)c1)OCc1ccc(Cc2c[nH]cn2)cc1 [Compound 18],23
12,O=C(Nc1cc(Cl)cc(Cl)c1)OCc1ccc(Cc2c[nH]cn2)cc1 [Compound 20],5

# Test system: electrically induced convulsions
# Assay: not given
# Settings: mice; Yokoyama et al., Eur. J. Pharmacol. 1993; cited from earlier work
Compound,duration of each phase of convulsion,electroconvulsive threshold
S=C(NC1CCCCC1)N1CCC(c2cnc[nH]2)CC1 [thioperamide],decreased the duration of each phase of convulsion,raised the electroconvulsive threshold

# Test system: short-term memory and reversal learning
# Assay: not given
# Settings: rat; Clapham et al., Brit. J. Pharm. Suppl. 1993; cited from earlier work
row,Compound,short-term memory and reversal learning
1,S=C(NC1CCCCC1)N1CCC(c2cnc[nH]2)CC1 [thioperamide],can improve short-term memory and reversal learning in the rat
